Measurements: patent US20230322846A9, “NEUROACTIVE STEROIDS AND THEIR METHODS OF USE” (SAGE THERAPEUTICS, INC., priority 2018, published 2023)

These molecules were tested against [35S]-TBPS binding, rat brain cortical membranes (assay: Steroid inhibition of [35S]-TBPS binding). Conditions: 3 nM [35S]-TBPS, in the presence of 5 mM GABA.
Outline: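 In the presence of […], compounds (DMSO 0.5% final) competed with 3 nM [35S]-TBPS for Sprague-Dawley rat cortical membranes, pH 7.4 phosphate buffer, 90 min, room temperature. Filtration and scintillation counting; specific binding defined by […]; IC50 and maximal inhibition fitted per experiment, averaged as mean ± SEM.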
`COC[C@@]1(O)CC[C@H]2[C@H](CC[C@@H]3[C@@H]2CC[C@]2(C)[C@@H](CCn4nccc4C#N)CC[C@@H]32)C1` [Example 88, 1-(2-((3R,5R,8R,9R,10S,13R,14S,17R)-3-hydroxy-3-(methoxymethyl)-13-methylhexadecahydro-1H-cyclopenta[a]phenanthren-17-yl)ethyl)-1H-pyrazole-5-carbonitrile] was tested, and the IC50 was < 100 nM.
`CCC[C@@]1(O)CC[C@@]2(C)[C@H](CC[C@@H]3[C@@H]2CC[C@]2(C)[C@@H]([C@@H](C)Cn4nnc(C)n4)CC[C@@H]32)C1` [Example 313, (3R,5R,8R,9S,10S,13S,14S,17R)-10,13-dimethyl-17-((R)-1-(5-methyl-2H-tetrazol-2-yl)propan-2-yl)-3-propylhexadecahydro-1H-cyclopenta[a]phenanthren-3-ol] was tested, and the IC50 was < 100 nM.
`C[C@@H](Cn1nccn1)[C@H]1CC[C@H]2[C@@H]3CC[C@H]4C[C@](C)(O)CC[C@@H]4[C@H]3CC[C@]12C` [Example 57, (3R,5S,8R,9R,10S,13S,14S,17R)-17-((R)-1-(2H-1,2,3-triazol-2-yl)propan-2-yl)-3,13-dimethylhexadecahydro-1H-cyclopenta[a]phenanthren-3-ol] was tested, and the IC50 was 100 to 1000 nM.
In the case of `COC[C@@]1(O)CC[C@@]2(C)[C@H](CC[C@@H]3[C@@H]2[C@@H](O)C[C@]2(C)[C@@H]([C@H](C)Cn4cc(C#N)cn4)CC[C@@H]32)C1` [Example 328, 1-((S)-2-((3R,5R,8S,9S,10S,11S,13S,14S,17R)-3,11-dihydroxy-3-(methoxymethyl)-10,13-dimethylhexadecahydro-1H-cyclopenta[a]phenanthren-17-yl)propyl)-1H-pyrazole-4-carbonitrile], the IC50 is reported as 100 to 1000 nM.
With `C[C@@H](Cn1cc(C#N)cn1)[C@H]1CC[C@H]2[C@@H]3CC[C@@H]4C[C@](C)(O)CC[C@@H]4[C@H]3CC[C@]12C` [Example 51, 1-((R)-2-((3R,5R,8R,9R,10S,13S,14S,17R)-3-hydroxy-3,13-dimethylhexadecahydro-1H-cyclopenta[a]phenanthren-17-yl)propyl)-1H-pyrazole-4-carbonitrile] the IC50 was < 100 nM.
With `COC[C@@]1(O)CC[C@H]2[C@H](CC[C@@H]3[C@@H]2CC[C@]2(C)[C@@H](CCn4nnnc4C)CC[C@@H]32)C1` [Example 48, (3R,5R,8R,9R,10S,13R,14S,17R)-3-(methoxymethyl)-13-methyl-17-(2-(5-methyl-1H-tetrazol-1-yl)ethyl)hexadecahydro-1H-cyclopenta[a]phenanthren-3-ol] the IC50 was < 100 nM.
For `CCC[C@@]1(O)CC[C@@]2(COC)[C@H](CC[C@H]3[C@@H]4CC[C@H]([C@H](C)Cn5nnnc5C)[C@@]4(C)CC[C@@H]32)C1` [Example 322, (3R,5R,8S,9S,10R,13S,14S,17R)-10-(methoxymethyl)-13-methyl-17-((S)-1-(5-methyl-1H-tetrazol-1-yl)propan-2-yl)-3-propylhexadecahydro-1H-cyclopenta[a]phenanthren-3-ol], the IC50 was < 100 nM.
In the case of `C[C@H](Nc1ccc(C#N)cc1)[C@H]1CC[C@H]2[C@@H]3CC[C@@H]4C[C@](C)(O)CC[C@@H]4[C@H]3CC[C@]12C` [Example 205], the IC50 is reported as 1000 to 10000 nM.
With `CCOC[C@@]1(O)CC[C@H]2[C@H](CC[C@@H]3[C@@H]2CC[C@]2(C)[C@@H]([C@@H](C)n4cc(C#N)cn4)CC[C@@H]32)C1` [Example 162, 1-((R)-1-((3R,5R,8R,9R,10S,13S,14S,17S)-3-(ethoxymethyl)-3-hydroxy-13-methylhexadecahydro-1H-cyclopenta[a]phenanthren-17-yl)ethyl)-1H-pyrazole-4-carbonitrile] the IC50 was 100 to 1000 nM.
In the case of `C[C@H]([C@H]1CC[C@H]2[C@@H]3CC[C@@H]4C[C@](C)(O)CC[C@@H]4[C@H]3CC[C@]12C)n1ncc(C#N)c1N` [Example 154, 5-amino-1-((R)-1-((3R,5R,8R,9R,10S,13S,14S,17S)-3-hydroxy-3,13-dimethylhexadecahydro-1H-cyclopenta[a]phenanthren-17-yl)ethyl)-1H-pyrazole-4-carbonitrile], the IC50 is reported as 1000 to 10000 nM.
In the case of `C[C@@H](Cc1ncc(CO)s1)[C@H]1CC[C@H]2[C@@H]3CC[C@@H]4C[C@](C)(O)CC[C@@H]4[C@H]3CC[C@]12C` [Example 428], the IC50 is reported as < 100 nM.
With `CC[C@]12CC[C@H]3[C@@H](CC[C@@H]4C[C@](C)(O)CC[C@@H]43)[C@@H]1CC[C@@H]2[C@H](C)Cn1cc(C#N)cn1` [Example 318, 1-((S)-2-((3R,5R,8R,9R,10S,13S,14S,17R)-13-ethyl-3-hydroxy-3-methylhexadecahydro-1H-cyclopenta[a]phenanthren-17-yl)propyl)-1H-pyrazole-4-carbonitrile] the IC50 was < 100 nM.
For `CCOC[C@@]1(O)CC[C@@]2(C)[C@H](CC[C@H]3C4CC[C@H]([C@@H](C)Nc5ccc(-n6cc(C#N)cn6)cn5)[C@@]4(C)CC[C@@H]32)C1` (stereo partly drawn) [Example 504], the IC50 was 100 to 1000 nM.
`COC[C@@]1(O)CC[C@H]2[C@H](CC[C@@H]3[C@@H]2CC[C@]2(C)[C@@H]([C@@H](C)NC(=O)c4ccc(OC(F)(F)F)cc4)CC[C@@H]32)C1` [Example 111] was tested, and the IC50 was < 100 nM.
`CCOC[C@@]1(O)CC[C@H]2[C@H](CC[C@@H]3[C@@H]2CC[C@]2(C)[C@@H]([C@@H](CC)Cn4ccc(C#N)n4)CC[C@@H]32)C1` [Example 498, 1-((R)-2-((3R,5R,8R,9R,10S,13S,14S,17R)-3-(ethoxymethyl)-3-hydroxy-13-methylhexadecahydro-1H-cyclopenta[a]phenanthren-17-yl)butyl)-1H-pyrazole-3-carbonitrile] showed an IC50 of 100 to 1000 nM.
`C[C@H](NC(=O)c1ccc(F)cc1)[C@H]1CC[C@H]2[C@@H]3CC[C@@H]4C[C@](C)(O)CC[C@@H]4[C@H]3CC[C@]12C` [Example 117] was tested, and the IC50 was 1000 to 10000 nM.
For `CCOC[C@@]1(O)CC[C@H]2[C@H](CC[C@@H]3[C@@H]2CC[C@]2(C)[C@@H]([C@H](C)n4ncc(C#N)c4N)CC[C@@H]32)C1` [Example 161, 5-amino-1-((S)-1-((3R,5R,8R,9R,10S,13S,14S,17S)-3-(ethoxymethyl)-3-hydroxy-13-methylhexadecahydro-1H-cyclopenta[a]phenanthren-17-yl)ethyl)-1H-pyrazole-4-carbonitrile], the IC50 was 1000 to 10000 nM.
`CC[C@]12CC[C@H]3[C@@H](CC[C@@H]4C[C@](C)(O)CC[C@@H]43)[C@@H]1CC[C@@H]2[C@@H](C)Cn1cc(C#N)cn1` [Example 317, 1-((R)-2-((3R,5R,8R,9R,10S,13S,14S,17R)-13-ethyl-3-hydroxy-3-methylhexadecahydro-1H-cyclopenta[a]phenanthren-17-yl)propyl)-1H-pyrazole-4-carbonitrile] was tested, and the IC50 was < 100 nM.
For `COC[C@@]1(O)CC[C@H]2[C@H](CC[C@@H]3[C@@H]2CC[C@]2(C)[C@@H](CCn4ccnn4)CC[C@@H]32)C1` [Example 50, (3R,5R,8R,9R,10S,13R,14S,17R)-17-(2-(1H-1,2,3-triazol-1-yl)ethyl)-3-(methoxymethyl)-13-methylhexadecahydro-1H-cyclopenta[a]phenanthren-3-ol], the IC50 was < 100 nM.
`CC[C@@]1(O)CC[C@@]2(C)[C@@H](CC[C@@H]3[C@@H]2CC[C@]2(C)[C@@H]([C@H](C)Cn4nnc(C)n4)CC[C@@H]32)C1` [Example 360, (3R,5S,8R,9S,10S,13S,14S,17R)-3-ethyl-10,13-dimethyl-17-((S)-1-(5-methyl-2H-tetrazol-2-yl)propan-2-yl)hexadecahydro-1H-cyclopenta[a]phenanthren-3-ol] was tested, and the IC50 was 1000 to 10000 nM.
`C[C@H]1CCCC(=O)N1C[C@H]1CC[C@H]2[C@@H]3CC[C@@H]4C[C@](C)(O)CC[C@@H]4[C@H]3CC[C@]12C` [Example 6, (S)-1-(((3R,5R,8R,9R,10S,13S,14S,17S)-3-hydroxy-3,13-dimethylhexadecahydro-1H-cyclopenta[a]phenanthren-17-yl)methyl)-6-methylpiperidin-2-one] was tested, and the IC50 was 1000 to 10000 nM.
In the case of `COC[C@@]1(O)CC[C@H]2[C@H](CC[C@@H]3[C@@H]2CC[C@]2(C)[C@@H]([C@H](C)Cc4ccc(C(F)(F)F)nc4)CC[C@@H]32)C1` [Example 421], the IC50 is reported as 100 to 1000 nM.
`COc1cccc(C(=O)N[C@H](C)[C@H]2CC[C@H]3[C@@H]4CC[C@@H]5C[C@](C)(O)CC[C@@H]5[C@H]4CC[C@]23C)c1` [Example 104] was tested, and the IC50 was < 100 nM.
`COC[C@@]1(O)CC[C@H]2[C@H](CC[C@@H]3[C@@H]2CC[C@]2(C)[C@@H]([C@@H](C)NC(=O)c4cc(C)nn4C)CC[C@@H]32)C1` [Example 118] showed an IC50 of 100 to 1000 nM.
For `CCOC[C@@]1(O)CC[C@H]2[C@H](CC[C@@H]3[C@@H]2CC[C@]2(C)[C@@H]([C@@H](C)N(C)S(=O)(=O)c4cccc(C#N)c4)CC[C@@H]32)C1` [Example 70], the IC50 was < 100 nM.
Work on `COC[C@@]1(O)CC[C@@]2(C)[C@H](CC[C@@H]3[C@@H]2[C@H](O)C[C@]2(C)[C@@H]([C@@H](C)Cn4cc(C#N)cn4)CC[C@@H]32)C1` [Example 283, 1-((R)-2-((3R,5R,8S,9S,10S,11R,13S,14S,17R)-3,11-dihydroxy-3-(methoxymethyl)-10,13-dimethylhexadecahydro-1H-cyclopenta[a]phenanthren-17-yl)propyl)-1H-pyrazole-4-carbonitrile] yielded an IC50 of 100 to 1000 nM.
Work on `C[C@H](Cc1nc(C(F)(F)F)cs1)[C@H]1CC[C@H]2[C@@H]3CC[C@@H]4C[C@](C)(O)CC[C@@H]4[C@H]3CC[C@]12C` [Example 450] yielded an IC50 of 100 to 1000 nM.
